Laboratory results from the supplement of paper PMC13380429.

Legend:
Caco-2 [1] = test: drug sensitivity score (DSS) for viability; higher = more toxic; extreme values may be limits of the assay; conditions: 72 h
HepG2 [2] = test: as above; conditions: 72 h
Vero E6 [3] = test: as above; conditions: 72 h
U2OS [4] = test: as above; conditions: 72 h
Calu-3 [5] = test: as above; conditions: 72 h
A549-ACE2 = test: drug-induced phospholipidosis relative to tamoxifen; higher = more phospholipidosis
Caco-2 [6] = test: relative viability EC50 (midpoint between 100% and the lowest measured viability); higher = less toxic; conditions: 72 h
U2OS [7] = test: as above; conditions: 72 h
[8] = test system: A549-ACE2 infected with SARS-CoV-2; test: morphology score (similarity to uninfected cells); higher = more like uninfected cells; conditions: 24 h
[9] = test system: A549-ACE2 infected with SARS-CoV-2; test: SARS-CoV-2 infection rate relative to DMSO; higher = more infection; conditions: 24 h
[10] = test system: A549-ACE2 infected with SARS-CoV-2; test: cell count relative to DMSO; higher = less toxic; conditions: 24 h
Caco-2 [11] = test: cell viability relative to DMSO; higher = less toxic; conditions: 72 h
HepG2 [12] = test: as above; conditions: 72 h
Vero E6 [13] = test: as above; conditions: 72 h
U2OS [14] = test: as above; conditions: 72 h
Calu-3 [15] = test: as above; conditions: 72 h
HepG2 [16] = test: relative viability EC50 (midpoint between 100% and the lowest measured viability); higher = less toxic; conditions: 72 h
Vero E6 [17] = test: as above; conditions: 72 h
Calu-3 [18] = test: as above; conditions: 72 h

O=C1NC(=O)C(c2cnc3ccccn23)=C1c1cn2c3c(cc(F)cc13)CN(C(=O)N1CCCCC1)CC2
Conditions | drug sensitivity score | relative viability EC50 [µM]
Caco-2 [1] | 6.7 | –
Caco-2 [6] | – | 0.624
Calu-3 [5] | 9.5 | –
HepG2 [2] | 3.2 | –
U2OS [4] | 1.3 | –
U2OS [7] | – | > 10
Vero E6 [3] | 6.6 | –

A549-ACE2, 24 h
Conditions | drug-induced phospholipidosis [%]
0.3 µM | -5.51
0.833333 µM | -3
3.33333 µM | -2.04
6.66667 µM | -0.59
10 µM | 12.5

Conditions | SARS-CoV-2 infection rate, [9] [%] | cell count, [10] [%] | cell viability, Caco-2 [11] [%] | cell viability, Calu-3 [15] [%] | cell viability, HepG2 [12] [%] | cell viability, U2OS [14] [%] | cell viability, Vero E6 [13] [%] | morphology score, [8]
1 nM | – | – | 104 | 101 | 121 | 108 | 105 | –
10 nM | – | – | 109 | 111 | 113 | 112 | 105 | –
100 nM | – | – | 87.3 | 80 | 109 | 99.5 | 95.9 | –
0.3 µM | 114 | 79 | – | – | – | – | – | -0.23
1000 nM | – | – | 70.5 | 68.1 | 94 | 94.2 | 66.1 | –
3 µM | 108 | 75 | – | – | – | – | – | -0.14
10 µM | 92 | 72 | – | – | – | – | – | -0.05
10000 nM | – | – | 47.3 | 61 | 56.7 | 80.3 | 77.9 | –
30 µM | 49 | 50 | – | – | – | – | – | 0.41

CN1CCCCC1Cn1cc(C(=O)c2cc([N+](=O)[O-])ccc2I)c2ccccc21 (centres undefined) [AM-1241]
Conditions | drug sensitivity score | relative viability EC50 [µM]
Caco-2 [1] | 0 | –
Caco-2 [6] | – | > 10
Calu-3 [5] | 0 | –
Calu-3 [18] | – | > 10
HepG2 [2] | 0 | –
HepG2 [16] | – | > 10
U2OS [4] | 0 | –
U2OS [7] | – | > 10
Vero E6 [3] | 0 | –
Vero E6 [17] | – | > 10

drug-induced phospholipidosis [%], A549-ACE2
Conditions | 0.3 µM | 0.833333 µM | 3.33333 µM | 6.66667 µM | 10 µM | 30 µM
24 h | -1.12 | 0.49 | 3.57 | 9.5 | 15.9 | 81.8
48 h | -0.88 | -2.35 | 0.06 | 1.85 | 8.12 | 104
72 h | -1.12 | -4.89 | -3.06 | 1.99 | 5.24 | 111

Conditions | SARS-CoV-2 infection rate, [9] [%] | cell count, [10] [%] | cell viability, Caco-2 [11] [%] | cell viability, Calu-3 [15] [%] | cell viability, HepG2 [12] [%] | cell viability, U2OS [14] [%] | cell viability, Vero E6 [13] [%] | morphology score, [8]
1 nM | – | – | 92.7 | 103 | 89.1 | 94 | 95.4 | –
10 nM | – | – | 92.8 | 103 | 101 | 97.6 | 99.2 | –
100 nM | – | – | 100 | 99.3 | 107 | 91.7 | 96.5 | –
0.3 µM | 107 | 104 | – | – | – | – | – | 0.18
1000 nM | – | – | 94.4 | 94.4 | 102 | 98.1 | 97.1 | –
3 µM | 85 | 109 | – | – | – | – | – | 0.36
10 µM | 63 | 118 | – | – | – | – | – | 0.87
10000 nM | – | – | 97.8 | 104 | 102 | 99 | 106 | –
30 µM | 33 | 115 | – | – | – | – | – | 0.66
